Measurements taken from the supplement of paper PMC5908809.

Legend:
[1] = system: normal primary NK cells, pool 2 (3 donors) (IL-2 2.5 ng/mL); assay: percent inhibition of viability; higher = more inhibition; settings: 72 h
[2] = system: YT (IL-2 2.5 ng/mL); assay: as above; settings: 72 h
[3] = system: normal primary NK cells, pool 3 (3 donors) (IL-2 2.5 ng/mL); assay: as above; settings: 72 h
[4] = system: normal primary NK cells, pool 1 (3 donors) (IL-2 2.5 ng/mL); assay: as above; settings: 72 h
[5] = system: KHYG-1 (IL-2 2.5 ng/mL); assay: as above; settings: 72 h
[6] = system: DERL-7 (IL-2 2.5 ng/mL); assay: as above; settings: 72 h
[7] = system: NKL (IL-2 2.5 ng/mL); assay: as above; settings: 72 h
[8] = system: KAI3 (IL-2 2.5 ng/mL); assay: as above; settings: 72 h
[9] = system: normal primary NK cells, pool 1 (3 donors), resting (IL-2 0 ng/mL); assay: as above; settings: 72 h
[10] = system: NK-YS (IL-2 2.5 ng/mL); assay: as above; settings: 72 h
[11] = system: IMC-1 (IL-2 20 ng/mL); assay: as above; settings: 72 h
[12] = system: SNK-6 (IL-2 2.5 ng/mL); assay: as above; settings: 72 h
[13] = system: NK-92 (IL-2 2.5 ng/mL); assay: as above; settings: 72 h
[14] = system: normal primary NK cells, pool 2 (3 donors) (IL-2 2.5 ng/mL); assay: drug sensitivity score (DSS) (DSS units); higher = more sensitive; extreme values may be limits of the assay; settings: 72 h
[15] = system: YT (IL-2 2.5 ng/mL); assay: as above; settings: 72 h
[16] = system: normal primary NK cells, pool 3 (3 donors) (IL-2 2.5 ng/mL); assay: as above; settings: 72 h
[17] = system: normal primary NK cells, pool 1 (3 donors) (IL-2 2.5 ng/mL); assay: as above; settings: 72 h
[18] = system: KHYG-1 (IL-2 2.5 ng/mL); assay: as above; settings: 72 h
[19] = system: DERL-7 (IL-2 2.5 ng/mL); assay: as above; settings: 72 h
[20] = system: NKL (IL-2 2.5 ng/mL); assay: as above; settings: 72 h
[21] = system: KAI3 (IL-2 2.5 ng/mL); assay: as above; settings: 72 h
[22] = system: normal primary NK cells, pool 1 (3 donors), resting (IL-2 0 ng/mL); assay: as above; settings: 72 h
[23] = system: NK-YS (IL-2 2.5 ng/mL); assay: as above; settings: 72 h
[24] = system: IMC-1 (IL-2 20 ng/mL); assay: as above; settings: 72 h
[25] = system: SNK-6 (IL-2 2.5 ng/mL); assay: as above; settings: 72 h
[26] = system: NK-92 (IL-2 2.5 ng/mL); assay: as above; settings: 72 h
[27] = system: normal NK cells expanded with K562-aAPC; assay: percent inhibition of viability; higher = more inhibition; settings: 72 h, IL-2 2.5 ng/mL
Description: (§1)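 Drug sensitivity and resistance testing on K562-aAPC-expanded normal NK cells: 5 concentrations (10-fold steps over a 10,000-fold range), 72 h at 37 °C, viability by CellTiter-Glo normalised to DMSO and benzethonium chloride controls; DSS from the fitted curve.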

[28] = system: normal NK cells expanded with K562-aAPC; assay: drug sensitivity score (DSS) (DSS units); higher = more sensitive; extreme values may be limits of the assay; settings: 72 h; IL-2 2.5 ng/mL
Description: as §1

COc1cc(Nc2c(C#N)cnc3cc(OCCCN4CCN(C)CC4)c(OC)cc23)c(Cl)cc1Cl [Bosutinib] (max concentration tested 10000 nM)
percent inhibition of viability [%]
Settings | 1 nM | 10 nM | 100 nM | 1000 nM | 10000 nM
[1] | -12.2 | -5.59 | -2.85 | 25.5 | 98.1
[2] | 1.55 | 1.24 | 2.37 | 15.2 | 97.2
[3] | 0.05 | -0.81 | 10.8 | -5.33 | 99.8
[4] | -9.61 | -1.56 | 4.38 | 20.6 | 100
[5] | -3.69 | 1.01 | -1.05 | 26.2 | 96.2
[6] | 1.55 | 6.21 | 8.26 | 37.4 | 100
[7] | -12.2 | -8.59 | -6.88 | 0.83 | 95.5
[8] | 8.38 | 12 | 3.26 | 31.6 | 97.2
[9] | -6.19 | -3.78 | 1.15 | 58.5 | 99.3
[10] | -4.4 | -3.22 | -2.75 | 2.53 | 96.7
[11] | -6.46 | 0.66 | -10.5 | -9.81 | 96.6
[12] | 6.03 | 14.6 | -18.2 | -17.4 | 99.7
[13] | -0.68 | -2.8 | -0.62 | 22.4 | 97.7
[27] | 4.72 | 2.21 | 15.7 | 3.76 | 99.9

Settings | drug sensitivity score
[14] | 9.3
[15] | 7.9
[16] | 5.14
[17] | 8.82
[18] | 9.26
[19] | 9.96
[20] | 5.43
[21] | 9.81
[22] | 12.4
[23] | 5.71
[24] | 4.71
[25] | 4.57
[26] | 8.9
[28] | 6.07

CCNC(=O)Nc1ccc(-c2nc3c(c(N4CCOC[C@@H]4C)n2)CCN(C2COC2)C3)cc1 [RG-7603] (max concentration tested 2500 nM)
percent inhibition of viability [%]
Settings | 0.25 nM | 2.5 nM | 25 nM | 250 nM | 2500 nM
[1] | -4.33 | -4.69 | -7.06 | 3.67 | 13.1
[2] | -0.19 | -2.47 | -0.44 | 8.66 | 37
[3] | -5.74 | -6.13 | -4.3 | -0.62 | 10.1
[4] | -9.72 | -0.76 | 9.2 | 14.6 | 21
[5] | -4.71 | -3.78 | -6.03 | 6.5 | 24.9
[6] | -2.9 | 5.17 | 4.85 | 41.4 | 63.4
[7] | -16.4 | -9.21 | 1.54 | 34.9 | 54.6
[8] | -2.16 | 10.2 | 4.9 | 24.3 | 45.1
[9] | -10.2 | -9.16 | 15.7 | 0.22 | 16
[10] | -8.96 | -4.62 | -4.67 | 17.1 | 44.4
[11] | -2.39 | -0.65 | -9.05 | -18.6 | -57.2
[12] | 15 | 2.98 | -2.03 | 14.2 | 42.2
[13] | -10.2 | -10.6 | -15.4 | 17.8 | 33.1
[27] | -3.77 | -6.71 | -1.18 | 12.9 | 25.9

Settings | drug sensitivity score
[14] | 0.33
[15] | 3.15
[16] | 0
[17] | 2.37
[18] | 1.86
[19] | 8.64
[20] | 7.13
[21] | 5.07
[22] | 0.19
[23] | 4.64
[24] | 0.89
[25] | 4.17
[26] | 3.67
[28] | 2.54
